Reference: patent US20230265151A1, “GIP/GLP1 CO-AGONIST COMPOUNDS” (priority 2020, published 2023)
Where two headings read alike, the source gives them in different places.

What was measured:
Assay type in all cases: cell-based
[1] = molecular target: T1, hGIPR (Homo sapiens, UniProt P48546); test: Functional cAMP formation (HTRF) in HEK-293 clonal cells expressing hGIPR, 0.1% bovine casein, without or with 1.0% human serum albumin; details: for Emax: percent of maximal response to GIP(1-42)NH2; for EC50: hGIPR EC50, nM (SEM, n), 37° C., geometric mean
T1 construct: expressed in transfected cells
T1 sequence (P48546 22-466): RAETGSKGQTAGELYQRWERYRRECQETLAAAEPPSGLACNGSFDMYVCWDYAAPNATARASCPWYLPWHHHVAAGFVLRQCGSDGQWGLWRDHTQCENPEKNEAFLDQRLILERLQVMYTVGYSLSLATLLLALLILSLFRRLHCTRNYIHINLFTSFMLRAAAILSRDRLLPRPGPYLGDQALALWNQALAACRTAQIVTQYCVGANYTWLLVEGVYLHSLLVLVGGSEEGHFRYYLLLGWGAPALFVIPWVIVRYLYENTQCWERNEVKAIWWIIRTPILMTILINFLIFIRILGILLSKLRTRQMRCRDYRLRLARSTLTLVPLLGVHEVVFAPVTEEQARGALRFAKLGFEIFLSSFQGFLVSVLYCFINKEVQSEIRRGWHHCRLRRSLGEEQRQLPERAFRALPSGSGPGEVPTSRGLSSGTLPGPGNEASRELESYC
Method in brief: (§1)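 Cells were stimulated with peptide for 30 min at 37° C, then intracellular cAMP was measured by competitive HTRF (665/620 nm ratio) and converted to nM using a cAMP standard curve. Relative EC50 and Emax came from four-parameter logistic fits of percent maximal response against peptide concentration.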

[2] = molecular target: hGLP-1R (Homo sapiens, UniProt P43220); test: Functional cAMP formation (HTRF) in HEK-293 clonal cells expressing hGLP-1R, 0.1% bovine casein, without or with 1.0% human serum albumin; set-up: expressed in transfected cells; details: for Emax: percent of maximal response to GLP-1(7-36)NH2
Chain of hGLP-1R (P43220 24-463): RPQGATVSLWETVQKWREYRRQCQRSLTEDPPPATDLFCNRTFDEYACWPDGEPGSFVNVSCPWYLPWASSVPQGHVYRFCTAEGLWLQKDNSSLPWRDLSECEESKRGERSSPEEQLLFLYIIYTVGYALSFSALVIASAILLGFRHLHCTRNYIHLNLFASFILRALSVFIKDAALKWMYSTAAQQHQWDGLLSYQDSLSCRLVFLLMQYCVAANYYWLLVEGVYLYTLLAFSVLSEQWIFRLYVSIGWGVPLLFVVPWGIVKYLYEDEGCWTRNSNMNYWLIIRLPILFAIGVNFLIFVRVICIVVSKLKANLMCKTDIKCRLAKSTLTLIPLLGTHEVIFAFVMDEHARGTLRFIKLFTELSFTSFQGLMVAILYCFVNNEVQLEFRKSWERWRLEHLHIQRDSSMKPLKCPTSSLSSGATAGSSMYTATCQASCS
Method in brief: as §1

[3] = molecular target: T2, hGCGR (Homo sapiens, UniProt P47871); test: Functional cAMP formation (HTRF) in HEK-293 clonal cells expressing hGCGR, 0.1% bovine casein, without or with 1.0% human serum albumin; details: hGCGR EC50, nM (SEM, n), 37° C., geometric mean
T2 construct: expressed in transfected cells
T2 sequence (P47871 26-477): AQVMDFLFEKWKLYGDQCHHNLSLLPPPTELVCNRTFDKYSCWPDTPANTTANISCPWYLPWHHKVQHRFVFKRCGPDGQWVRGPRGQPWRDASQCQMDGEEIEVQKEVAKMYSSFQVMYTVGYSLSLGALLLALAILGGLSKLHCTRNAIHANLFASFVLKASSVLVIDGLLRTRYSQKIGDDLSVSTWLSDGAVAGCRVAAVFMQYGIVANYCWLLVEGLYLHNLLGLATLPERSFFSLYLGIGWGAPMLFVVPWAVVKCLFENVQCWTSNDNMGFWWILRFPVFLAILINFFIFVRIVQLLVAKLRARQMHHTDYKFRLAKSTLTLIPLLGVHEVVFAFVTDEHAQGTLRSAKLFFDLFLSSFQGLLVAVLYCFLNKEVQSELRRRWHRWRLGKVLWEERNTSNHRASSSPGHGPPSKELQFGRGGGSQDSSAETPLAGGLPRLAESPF
Method in brief: as §1

[4] = HEK293, read-out: hGIPR Emax, % ± SEM, 0.1% bovine casein and 1.0% human serum albumin, 37° C.
[5] = 0.1% bovine casein and 1.0% human serum albumin
[6] = cAMP, 0.1% bovine casein (no human serum albumin)
[7] = HEK293, read-out: hGLP-1R Emax, % ± SEM, 0.1% bovine casein and 1.0% human serum albumin, 37° C.
[8] = HEK293, read-out: hGLP-1R Emax, % ± SEM, cAMP, 37° C., 0.1% bovine casein, arithmetic mean
[9] = HEK293, read-out: hGIPR Emax, % ± SEM, cAMP, 37° C., 0.1% bovine casein, arithmetic mean

Structure (SMILES): CC[C@H](C)[C@H](NC(=O)[C@H](CC(C)C)NC(=O)[C@](C)(Cc1ccc(O)cc1)NC(=O)[C@@H](CCC(=O)O)NC(=O)[C@@H](NC(=O)[C@H](Cc1ccccc1)NC(=O)[C@H](CCC(=O)O)NC(=O)C(C)(C)NC(=O)[C@H](CCC(N)=O)NC(=O)[C@H](C)NC(=O)[C@H](CCCCNC(=O)COCCOCCNC(=O)COCCOCCNC(=O)CC[C@H](NC(=O)CCCCCCCCCCOc1ccc(C(=O)O)cc1)C(=O)O)NC(=O)[C@H](CCCN)NC(=O)[C@H](CC(=O)O)NC(=O)[C@H](CC(C)C)NC(=O)[C@](C)(CC(C)C)NC(=O)[C@@H](NC(=O)[C@H](CO)NC(=O)[C@H](Cc1ccncc1)NC(=O)[C@H](CC(=O)O)NC(=O)[C@H](CO)NC(=O)[C@@H](NC(=O)[C@](C)(Cc1ccccc1F)NC(=O)[C@@H](NC(=O)CNC(=O)[C@H](CCC(=O)O)NC(=O)C(C)(C)NC(=O)[C@@H](N)Cc1ccc(O)cc1)[C@@H](C)O)[C@@H](C)O)[C@@H](C)CC)[C@@H](C)CC)C(=O)N[C@@H](CCC(=O)O)C(=O)NCC(=O)NCC(=O)N1CCC[C@H]1C(=O)N[C@@H](CO)C(=O)N[C@@H](CO)C(=O)NCC(=O)N[C@@H](C)C(=O)N1CCC[C@H]1C(=O)N1CCC[C@H]1C(=O)N1CCC[C@H]1C(=O)N[C@@H](CO)C(=O)N[C@@H](CCCCNC(=O)COCCOCCNC(=O)COCCOCCNC(=O)CC[C@H](NC(=O)CCCCCCCCCCOc1ccc(C(=O)O)cc1)C(=O)O)C(N)=O [Example 285]
- Emax [1, 4]: 84.7%
- EC50 [1, 5]: 1.28 nM
- EC50 [1, 6]: 0.0115 nM
- Emax [2, 7]: 105%
- EC50 ([2]; hGLP-1R EC50, nM (SEM, n), cAMP, 37° C., 0.1% bovine casein (no human serum albumin), geometric mean): 1.21 nM
- EC50 [3, 5]: > 9950 nM
- EC50 [3, 6]: > 9950 nM

Structure (SMILES): CC[C@H](C)[C@H](NC(=O)[C@H](CCCN)NC(=O)[C@H](CC(=O)O)NC(=O)[C@H](CC(C)C)NC(=O)[C@](C)(CC(C)C)NC(=O)[C@@H](NC(=O)[C@H](CO)NC(=O)[C@H](Cc1ccncc1)NC(=O)[C@H](CC(=O)O)NC(=O)[C@H](CO)NC(=O)[C@@H](NC(=O)[C@](C)(Cc1ccccc1F)NC(=O)[C@@H](NC(=O)CNC(=O)[C@H](CCC(=O)O)NC(=O)C(C)(C)NC(=O)[C@@H](N)Cc1ccc(O)cc1)[C@@H](C)O)[C@@H](C)O)[C@@H](C)CC)C(=O)N[C@@H](C)C(=O)N[C@@H](CCC(N)=O)C(=O)NC(C)(C)C(=O)N[C@@H](CCC(=O)O)C(=O)N[C@@H](Cc1ccccc1)C(=O)N[C@H](C(=O)N[C@@H](CCCCNC(=O)COCCOCCNC(=O)COCCOCCNC(=O)CC[C@H](NC(=O)CCCCCCCCCCOc1ccc(C(=O)O)cc1)C(=O)O)C(=O)N[C@@](C)(Cc1ccc(O)cc1)C(=O)N[C@@H](CC(C)C)C(=O)N[C@H](C(=O)N[C@@H](CCCCNC(=O)COCCOCCNC(=O)COCCOCCNC(=O)CC[C@H](NC(=O)CCCCCCCCCCOc1ccc(C(=O)O)cc1)C(=O)O)C(=O)NCC(=O)NCC(=O)N1CCC[C@H]1C(=O)N[C@@H](CO)C(=O)N[C@@H](CO)C(=O)NCC(=O)N[C@@H](C)C(=O)N1CCC[C@H]1C(=O)N1CCC[C@H]1C(=O)N1CCC[C@H]1C(=O)N[C@@H](CO)C(N)=O)[C@@H](C)CC)[C@@H](C)CC [Example 286]
- EC50 [1, 5]: 2.18 nM
- Emax [2, 7]: 90.3%
- Emax [2, 8]: 110%
- EC50 [3, 5]: > 9950 nM
- EC50 [3, 6]: > 9950 nM

Structure (SMILES): CC[C@H](C)[C@H](NC(=O)[C@H](CCCN)NC(=O)[C@H](CC(=O)O)NC(=O)[C@H](CC(C)C)NC(=O)[C@](C)(CC(C)C)NC(=O)[C@@H](NC(=O)[C@H](CO)NC(=O)[C@H](Cc1ccncc1)NC(=O)[C@H](CC(=O)O)NC(=O)[C@H](CO)NC(=O)[C@@H](NC(=O)[C@](C)(Cc1ccccc1F)NC(=O)[C@@H](NC(=O)CNC(=O)[C@H](CCC(=O)O)NC(=O)C(C)(C)NC(=O)[C@@H](N)Cc1ccc(O)cc1)[C@@H](C)O)[C@@H](C)O)[C@@H](C)CC)C(=O)N[C@@H](C)C(=O)N[C@@H](CCC(N)=O)C(=O)NC(C)(C)C(=O)N[C@@H](CCCCNC(=O)COCCOCCNC(=O)COCCOCCNC(=O)CC[C@H](NC(=O)CCCCCCCCCCOc1ccc(C(=O)O)cc1)C(=O)O)C(=O)N[C@@H](Cc1ccccc1)C(=O)N[C@H](C(=O)N[C@H](CCC(=O)O)C(=O)N[C@@](C)(Cc1ccc(O)cc1)C(=O)N[C@@H](CC(C)C)C(=O)N[C@H](C(=O)N[C@@H](CCCCNC(=O)COCCOCCNC(=O)COCCOCCNC(=O)CC[C@H](NC(=O)CCCCCCCCCCOc1ccc(C(=O)O)cc1)C(=O)O)C(=O)NCC(=O)NCC(=O)N1CCC[C@H]1C(=O)N[C@@H](CO)C(=O)N[C@@H](CO)C(=O)NCC(=O)N[C@@H](C)C(=O)N1CCC[C@H]1C(=O)N1CCC[C@H]1C(=O)N1CCC[C@H]1C(=O)N[C@@H](CO)C(N)=O)[C@@H](C)CC)[C@@H](C)CC [Example 287]
- Emax [1, 4]: 98.9%
- Emax [1, 9]: 93%
- Emax [2, 8]: 97.2%
- EC50 [3, 5]: > 9950 nM
- EC50 [3, 6]: > 9950 nM

Structure (SMILES): CC[C@H](C)[C@H](NC(=O)[C@H](CCCN)NC(=O)[C@H](CC(=O)O)NC(=O)[C@H](CC(C)C)NC(=O)[C@](C)(CC(C)C)NC(=O)[C@@H](NC(=O)[C@H](CO)NC(=O)[C@H](Cc1ccncc1)NC(=O)[C@H](CC(=O)O)NC(=O)[C@H](CO)NC(=O)[C@@H](NC(=O)[C@](C)(Cc1ccccc1F)NC(=O)[C@@H](NC(=O)CNC(=O)[C@H](CCC(=O)O)NC(=O)C(C)(C)NC(=O)[C@@H](N)Cc1ccc(O)cc1)[C@@H](C)O)[C@@H](C)O)[C@@H](C)CC)C(=O)N[C@@H](C)C(=O)N[C@@H](CCC(N)=O)C(=O)NC(C)(C)C(=O)N[C@@H](CCCCNC(=O)COCCOCCNC(=O)COCCOCCNC(=O)CC[C@H](NC(=O)CCCCCCCCCCOc1ccc(C(=O)O)cc1)C(=O)O)C(=O)N[C@@H](Cc1ccccc1)C(=O)N[C@H](C(=O)N[C@H](CCC(=O)O)C(=O)N[C@@](C)(Cc1ccc(O)cc1)C(=O)N[C@@H](CC(C)C)C(=O)N[C@H](C(=O)N[C@@H](CCC(=O)O)C(=O)NCC(=O)NCC(=O)N1CCC[C@H]1C(=O)N[C@@H](CO)C(=O)N[C@@H](CO)C(=O)NCC(=O)N[C@@H](C)C(=O)N1CCC[C@H]1C(=O)N1CCC[C@H]1C(=O)N1CCC[C@H]1C(=O)N[C@@H](CO)C(=O)N[C@@H](CCCCNC(=O)COCCOCCNC(=O)COCCOCCNC(=O)CC[C@H](NC(=O)CCCCCCCCCCOc1ccc(C(=O)O)cc1)C(=O)O)C(N)=O)[C@@H](C)CC)[C@@H](C)CC [Example 288]
- Emax [1, 4]: 85.2%
- Emax [1, 9]: 110%
- EC50 [1, 6]: 0.0219 nM
- Emax [2, 7]: 123%
- EC50 [3, 5]: > 9950 nM
- EC50 [3, 6]: > 9950 nM
